Each block holds one compound with its values, some of them ahead of it.
How the values were obtained:
[1] = Change over time of AcCh amount in aqueous pH solutions (standard sample); format: physicochemical; conditions: pH 4.1 to pH 3.1, after 12 days
Experimental: A method for stabilizing choline esters in eggplants was examined. […] Therefore, firstly, the concentration change over time of an AcCh standard sample was examined under neutral and acidic conditions. The neutral solution (pH 7.0) was a phosphate buffer solution, and the acidic solutions (pH 4.1, pH 3.6, pH 3.1, pH 2.6) were prepared by adding acetic acid; the pH solutions with an AcCh concentration of 1.9 mg/mL were allowed to remain at ambient temperature (23 to 25° C.) for 0, 3, 6, 12 days, and then the AcCh content was quantified.

[2] = tested on: spontaneously hypertensive rats (SHR); experiment: Single oral administration test in spontaneously hypertensive rats (tail cuff blood pressure, heart rate); format: in vivo, rat; conditions: SHRs after 12 hours of fasting
Experimental: The lyophilized eggplant powder was prepared by washing a 'Senshu' water eggplant from […], Osaka-fu with water, by sterilizing the eggplant with hypochlorous acid, and by finely grinding the edible part after lyophilisation. […] In order to compare the blood pressure-lowering effect, an administration test of an AcCh standard sample of 1.00×10^-9 mol/kg was performed in the same manner and the systolic blood pressure was measured. To a control group only water was administered under the same conditions. 0, 3, 6, 9, and 24 hours after the oral administration, systolic blood pressure, diastolic blood pressure and heart rate were measured by the tail cuff method using the non-invasive blood pressure measuring instrument Softron BP-98A (Softron Co., Ltd., Tokyo).

[3] = tested on: spontaneously hypertensive rats (SHR); experiment: Repeated oral administration test of AcCh in SHR that did not fast; format: in vivo, rat; conditions: in SHRs, weight assumed 370 g
From the text: (§1) This AcCh dose at which a blood pressure-lowering effect occurred in SHRs in normal condition upon oral ingestion was extrapolated to humans using Kleiber's law (Non-Patent Document 22). According to Kleiber's law, the mammalian metabolic rate is assumed to be proportional to the ¾ power of body weight, assuming the SHR weight to be 370 g and human weight to be 60 kg, the effective dose for humans is estimated to be 45.4 times the effective dose for SHRs.
(§2) When this AcCh dose was extrapolated to humans using Kleiber's law (Non-Patent Document 22), the upper limit of the daily human effective dose was 3.36×10^−6 mol (491 μg). Therefore, the daily effective dose for humans with high blood pressure having genetic characteristics such as SHRs was estimated to be in the range of 5 to 500 μg.

[4] = tested on: humans; experiment: Extrapolation of effective AcCh dose from SHR to humans by Kleiber's law; parameters: species or system human
From the text: as §1, §2

[5] = tested on: spontaneously hypertensive rats (SHR); conditions: purified compound, SHRs, single oral administration; cited from earlier work
[6] = tested on: thoracic aorta ring specimens of SHR; experiment: Vascular isometric tension measurement test (phenylephrine-constricted thoracic aorta rings); parameters: species or system rat; conditions: standard sample
Experimental: The ground eggplant samples used for the experiment were prepared as follows. […] 14-week-old male SHRs (body weight 320 to 346 g) were put to death by laparotomy and exsanguination under ether anaesthesia, and the thoracic aorta was quickly removed. The isolated aorta was immersed in physiological saline and the blood was thoroughly rinsed off, and then the connective tissue and adipose tissue attached to the blood vessel were removed in a Krebs-Henseleit solution to prepare a ring specimen with a width of about 2 to 3 mm. The resulting ring specimens were attached inside an organ bus of an isometric tension test device (UFER UC-05[…]., Kyoto) filled with Krebs-Henseleit solution of 37° C. (119 mM NaCl/4.7 mM KCl/1.1 mM KH2PO4/1.2 mM MgSO4/25 mM NaHCO3, pH 7.4) in which a mixed gas of 95% O2-5% CO2 was aerated, then a static tension of 1.0 g was applied and the ring specimens were stabilized for 60 minutes. […] The change in tension was measured and recorded by using a transducer (UFER UM-20, Iwashiya Kishimoto Ika Sangyo Co., Ltd.), the dilation rate (%) was calculated by equation (1) hereinafter, and the mean value±standard error (Mean±S. E.) was determined by repeating the test results three times. […]

AcCh remaining [1]: ≥ 97%
SMILES: CC(=O)OCC[N+](C)(C)C [AcCh, acetylcholine]
effective daily dose of AcCh [2]: 1e-09 mol/kg | effective daily intake of AcCh causing a blood pressure lowering effect [3]: 3.7e-09 mol | lower limit of the daily effective dose for humans [4]: 3.36e-08 mol | upper limit of the daily human effective dose [4]: 3.36e-06 mol

SMILES: CCCC(=O)OCC[N+](C)(C)C [BuCh, butyrylcholine]
blood pressure-lowering effect [5]: blood pressure-lowering effect is shown

SMILES: O=C(/C=C/c1ccc(O)c(O)c1)O[C@@H]1C[C@](O)(C(=O)O)C[C@@H](O)[C@H]1O [Chlorogenic acid]
effect on blood vessels ([6]; 11 μg/mL): no effect on blood vessels was observed

SMILES: CCC(=O)OCC[N+](C)(C)C [PrCh, propionylcholine]
blood pressure-lowering effect [5]: blood pressure-lowering effect is shown

SMILES: NCCCC(=O)O [γ-aminobutyric acid (GABA), γ-aminobutyric acid]
effect on blood vessels ([6]; 4.8 μg/mL): no effect on blood vessels was observed

Reference: patent US20220030896A2, “CHOLINE ESTER-CONTAINING COMPOSITION FOR ORAL INGESTION” (Shinshu University, priority 2016, published 2022)
